These results are taken from publication PMC6364417, “Kinase inhibitor library screening identifies synergistic drug combinations effective in sensitive and resistant melanoma cells” (Journal of Experimental & Clinical Cancer Research : CR, 2019).

Structures are written as SMILES. Like-named read-outs stand apart in the source and are kept apart here.

The test system of test [1] is A375 cells (parental). The experiment in a line: Dose-response curves and IC50, PrestoBlue cell viability, 72 h. Format: cell-based, human. The following applies: n.e. = did not suppress growth below 50% in the tested concentration range; for IC50: read-out: Half-maximal inhibitory concentration value (IC50), Mean.
Test [2] deals with A375-XP cells (Vemurafenib-resistant). The test is described as above. Format: cell-based, human. The following applies: n.e. = did not suppress growth below 50% in the tested concentration range; for IC50: read-out: Half-maximal inhibitory concentration value (IC50), Mean.
For test [3], the system named is A375-GP cells (Dabrafenib-resistant). Described as above. Format: cell-based, human. The following applies: n.e. = did not suppress growth below 50% in the tested concentration range; for IC50: read-out: Half-maximal inhibitory concentration value (IC50), Mean.
Test [4] relates to IGR37 cells (parental). Described as above. As to conditions: read-out: Half-maximal inhibitory concentration (IC50).
Protocol: (§1) All inhibitors used in this study were purchased from Selleck Chemicals (Houston, USA). They were dissolved in DMSO to a stock concentration of 10 mM according to the manufacturer’s instructions and stored at − 80 °C. […] Cell viability was measured with the PrestoBlue Cell Viability Reagent (ThermoFisher Scientific) on a CLARIOstar Monochromator microplate reader (BMG Labtech). Using the GraphPad Prism v5.04 software, the half-maximal inhibitor concentration values (IC50) were determined from the curve using the nonlinear log (inhibitor) vs response-variable slope (four parameters) equation. […] The IC50’s were determined for 3 biological replicates and are listed with their standard deviations.
(§2) Values represent the mean of at least three biological replicates; one representative curve of at least 3 biological replicates is depicted. _XP: cells resistant to Vemurafenib (red), _GP: cells resistant to Dabrafenib (green).
Test [5] concerns IGR37-XP cells (Vemurafenib-resistant). The description is as above. As to conditions: read-out: Half-maximal inhibitory concentration (IC50).
Protocol: as §1, §2
Test [6] relates to IGR37-GP cells (Dabrafenib-resistant). The test is described as above. As to conditions: read-out: Half-maximal inhibitory concentration (IC50).
Protocol: as §1, §2
Test [7] has as its system 501Mel cells (parental). The test is described as above. As to conditions: read-out: Half-maximal inhibitory concentration (IC50).
Protocol: as §1, §2
The subject of test [8] is 501Mel-XP cells (Vemurafenib-resistant). The test is described as above. As to conditions: read-out: Half-maximal inhibitory concentration (IC50).
Protocol: as §1, §2
For test [9], the system named is 501Mel-GP cells (Dabrafenib-resistant). Described as above. The following applies: read-out: Half-maximal inhibitory concentration (IC50).
Protocol: as §1
Test [10] concerns 501Mel cells (parental). The experiment in a line: Kinase inhibitor library screening, PrestoBlue cell viability, 1 or 10 μM, 72 h. The following applies: 501Mel Parental. A digest of the protocol:
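Parental cells and Vemurafenib-resistant (XP) or Dabrafenib-resistant (GP) derivatives were treated with library kinase inhibitors at 1 and 10 μM for 72 h. Viability measured by PrestoBlue and expressed as % of untreated cells, at least in duplicate.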

Test [11] has as its system 501Mel-GP cells (Dabrafenib-resistant). The description is as above. As to conditions: 501Mel GP.
Test [12] deals with 501Mel-XP cells (Vemurafenib-resistant). Described as above. As to conditions: 501Mel XP.
Test [13] has as its system A375 cells (parental). The description is as above. As to conditions: A375 Parental.
The subject of test [14] is A375-GP cells (Dabrafenib-resistant). Described as above. The following applies: A375 GP.
Test [15] relates to A375-XP cells (Vemurafenib-resistant). Described as above. As to conditions: A375 XP.
The test system of test [16] is IGR37 cells (parental). The description is as above. As to conditions: IGR37 Parental.
For test [17], the system named is IGR37-GP cells (Dabrafenib-resistant). The description is as above. As to conditions: IGR37 GP.
Test [18] relates to IGR37-XP cells (Vemurafenib-resistant). Described as above. The following applies: IGR37 XP.
The subject of test [19] is A375 cells. Put plainly: Synergy determination with the Chou-Talalay method (CompuSyn), cell viability 72 h. As to conditions: 72 h cell viability, Chou-Talalay / Synergyfinder. The class given is cell-based, human. As to the method:
The Chou-Talalay method to determine possible synergistic effects of selected kinase inhibitor combinations was used as described in [19]. […] Cells were treated with either single inhibitors or combinations thereof at indicated amounts in technical triplicates. The amounts were pre-determined from each inhibitor’s IC50 value and inhibitors were assayed in a defined dilution series and at constant ratio when combined. […] Combination Index (CI) values showing either synergy (< 1) or antagonism (> 1) were calculated with the CompuSyn software (ComboSyn, Inc).

As for `Nc1cc(C(F)(F)F)c(-c2cc(N3CCOCC3)nc(N3CCOCC3)n2)cn1` [BKM120], the IC50 in [1] stood at 0.951 µM; in test [2] it was 1 µM; in [3] it was 0.788 µM; in test [4] (IGR37 parental, 72 h cell viability), 0.916 µM; in [5] (IGR37-XP (Vemurafenib-resistant), 72 h cell viability) it was 1.16 µM; in [6] (IGR37-GP (Dabrafenib-resistant), 72 h cell viability) it was 1.52 µM. Further, the IC50 came out at 1.17 µM in test [7] (501Mel parental, 72 h cell viability); 0.818 µM in [8] (501Mel-XP (Vemurafenib-resistant), 72 h cell viability); 0.919 µM in test [9] (501Mel-GP (Dabrafenib-resistant), 72 h cell viability).

Consider `CCc1cnn2c(NCc3ccc[n+]([O-])c3)cc(N3CCCC[C@H]3CCO)nc12` [Dinaciclib], for which the IC50 in test [4] (Homo sapiens, IGR-37, 72 h) amounted to 0.0082 µM; in test [5] (Homo sapiens, 72 h), 0.0102 µM; in test [6] (Homo sapiens, 72 h), 0.0136 µM; in test [7] (Homo sapiens, 72 h), 0.012 µM; in test [8] (Homo sapiens, 72 h), 0.011 µM; in [9] (Homo sapiens, 72 h), 0.011 µM.

Regarding `CCS(=O)(=O)Nc1ccc2c(c1)/C(=C(/Nc1ccc(CN3CCCCC3)cc1)c1ccccc1)C(=O)N2` [Hesperadin, reference compound], the “cell viability (kinase inhibitor library screening)” value in test [10] (1μΜ, 72 h) stood at 45.1%; in test [10] (10μΜ, 72 h), 33.5%; in [11] (1μΜ, 72 h), 81.7%; in test [11] (10μΜ, 72 h), 46.9%; in [12] (1μΜ, 72 h), 70.7%; in test [12] (10μΜ, 72 h) it was 3.6%. The “cell viability (kinase inhibitor library screening)” value is on record as 1.9% in test [13] (10μΜ, 72 h); 7.5% in test [13] (1μΜ, 72 h); 13.0% in [14] (1μΜ, 72 h); 9.9% in [14] (10μΜ, 72 h); 13.3% in [15] (1μΜ, 72 h); 3.7% in [15] (10μΜ, 72 h). The “cell viability (kinase inhibitor library screening)” value in test [16] (1μΜ, 72 h) is 56.8%; in [16] (10μΜ, 72 h) it was 48.6%; in [17] (1μΜ, 72 h), 52.6%; in test [17] (10μΜ, 72 h) it was 12.7%; in [18] (1μΜ, 72 h), 35.1%; in test [18] (10μΜ, 72 h), 2.0%. The IC50 in [4] (Homo sapiens, IGR-37, 72 h) worked out at 0.339 µM; in [5] (Homo sapiens, 72 h) it was 0.77 µM; in test [6] (Homo sapiens, 72 h), 1.03 µM.

With `O=C(Cc1ccc(-c2ccc(OCCN3CCOCC3)cc2)cn1)NCc1ccccc1` [KX2-391, reference compound], the “cell viability (kinase inhibitor library screening)” value came out at 16.9 in test [10] (1μΜ, in %); 24.4 in test [10] (10μΜ, in %); 15.9 in [11] (1μΜ, in %); 19.8 in [11] (10μΜ, in %); 9.9 in test [12] (1μΜ, in %); 14.1 in test [12] (10μΜ, in %). Also, the “cell viability (kinase inhibitor library screening)” value in test [13] (1μΜ, in %) turned out to be 20.3; in test [13] (10μΜ, in %), 16.5; in test [14] (1μΜ, in %), 22.8; in test [14] (10μΜ, in %), 19.7; in [15] (1μΜ, in %) it was 21.2; in [16] (1μΜ, in %), 11.7. In addition, the “cell viability (kinase inhibitor library screening)” value was found to be 19.5 in test [16] (10μΜ, in %); 70.8 in [17] (1μΜ, in %); 68.8 in test [17] (10μΜ, in %); 45.0 in test [18] (1μΜ, in %); 36.6 in test [18] (10μΜ, in %). The IC50 turned out to be 0.042 µM in test [1], 0.046 µM in [2] and 0.037 µM in [3]. Besides, the “synergistic effects with the BRAF inhibitors Vemurafenib and/or Dabrafenib (in words)” value in test [19] is listed as “did not act synergistically”.

For `Cc1ccc([N+](=O)[O-])cc1S(=O)(=O)N(C)/N=C/c1cnc2ccc(Br)cn12` [PIK-75, reference compound], the “Cell viability in kinase inhibitor library screening, 501Mel Parental, 1μΜ” value in [10] (1μΜ, 72 h, in %) worked out at 0.758. Also, in test [10] (10μΜ, 72 h, in %), the “Cell viability in kinase inhibitor library screening, 501Mel Parental, 10μΜ” value amounted to 0.0735. The “Cell viability in kinase inhibitor library screening, 501Mel GP, 1μΜ” value in test [11] (1μΜ, 72 h, in %) came out at 0.164. Besides, the “Cell viability in kinase inhibitor library screening, 501Mel GP, 10μΜ” value in test [11] (10μΜ, 72 h, in %) stood at 0.3. In [12] (1μΜ, 72 h, in %), the “Cell viability in kinase inhibitor library screening, 501Mel XP, 1μΜ” value was -0.0746. Also, the “Cell viability in kinase inhibitor library screening, 501Mel XP, 10μΜ” value in [12] (10μΜ, 72 h, in %) is reported as -0.125. Further, the “Cell viability in kinase inhibitor library screening, A375 Parental, 10μΜ” value in test [13] (10μΜ, 72 h) came to 1.8. In addition, the “Cell viability in kinase inhibitor library screening, A375 Parental, 1μΜ” value in test [13] (1μΜ, 72 h) came to 4.1. The “Cell viability in kinase inhibitor library screening, A375 GP, 1μΜ” value in [14] (1μΜ, 72 h) worked out at 4.0. The “Cell viability in kinase inhibitor library screening, A375 GP, 10μΜ” value in test [14] (10μΜ, 72 h) was found to be 1.2. Further, the “Cell viability in kinase inhibitor library screening, A375 XP, 1μΜ” value in test [15] (1μΜ, 72 h) is 5.1. For the same compound, the “Cell viability in kinase inhibitor library screening, A375 XP, 10μΜ” value in test [15] (10μΜ, 72 h) worked out at 2.3. The “Cell viability in kinase inhibitor library screening, IGR37 Parental, 1μΜ” value in test [16] (1μΜ, 72 h, in %) is listed as 1.2. In addition, the “Cell viability in kinase inhibitor library screening, IGR37 Parental, 10μΜ” value in test [16] (10μΜ, 72 h, in %) stood at 0.6. Also, the Cell viability in kinase inhibitor library screening, IGR37 GP, 10μΜ in [17] (10μΜ, 72 h) stood at 1.1%. Further, the “Cell viability in kinase inhibitor library screening, IGR37 GP, 1μΜ” value in test [17] (1μΜ, 72 h, in %) is 1.7. Besides, in test [18] (10μΜ, 72 h), the Cell viability in kinase inhibitor library screening, IGR37 XP, 10μΜ is 0.7%. The “Cell viability in kinase inhibitor library screening, IGR37 XP, 1μΜ” value in test [18] (1μΜ, 72 h, in %) is 1.2. Moreover, the results for the IC50 in [1], in test [2] and in test [3] were 0.055 µM, 0.053 µM and 0.045 µM, respectively. Also, in [19], the “synergistic effects with the BRAF inhibitors Vemurafenib and/or Dabrafenib (in words)” value was “synergistic effects only with Dabrafenib”.

Turning to `CO[C@H]1C[C@@H]2CC[C@@H](C)[C@@](O)(O2)C(=O)C(=O)N2CCCC[C@H]2C(=O)O[C@H]([C@H](C)C[C@@H]2CC[C@@H](OC(=O)C(C)(CO)CO)[C@H](OC)C2)CC(=O)[C@H](C)/C=C(\C)[C@@H](O)[C@@H](OC)C(=O)[C@H](C)C[C@H](C)/C=C/C=C/C=C/1C` [Temsirolimus], the “Half-maximal inhibitory concentration value (IC50), Mean” value in test [1], in test [2] and in test [3] was “n.e” throughout. The IC50 worked out at 6.93 µM in test [5] (Homo sapiens, 72 h) and 9.45 µM in test [6] (Homo sapiens, 72 h).
